Converted amounts (≈) assume the structure as drawn. Read-outs that look alike come from different tables or passages of the source.
How the values were obtained:
[1] = test system: SK-OV-3 (ovarian cancer); assay: MTT cell toxicity to human cancer cells, SK-OV-3; type: cell-based; conditions: for IC50: Homo sapiens, SK-OV-3, 72 hours; for IC50 Cancer cell line SK-OV-3: 72 hours, Table 3
Description: (§1) For measuring in vitro anticancer activity of 5′-deoxy-N^4-propargyloxycarbonyl-5-fluorocytosine-5′-carboxylic acid (R^3=propargyl, compound of 2a) using 5-Fu as a reference compound, cell toxicity to human cancer cell was evaluated. The cancer cells used were A549 (lung cancer), HCT15 (colon cancer), SK-OV-3 (ovarian cancer), and SK-MEL-2 (melanoma cancer).
(§2) The cancer cells were incubated in an incubator with a constant humidity at 37° C. and 5% CO2, and an RPMI medium with the addition of 10% fetal bovine serum was used for a basic medium. In order to identify cell toxicity, the cancer cells in a logarithmic phase were inoculated at 2-5×10^4 cells per well of a 96-well plate, and incubated for 24 hours. A sample solution of 5-FU and 5′-deoxy-N^4-propargyloxycarbonyl-5-flurocytosine-5′-carboxylic acid was stepwisely added to the well and incubated for 72 hours. 20 μl of 5 mg/ml MTT reacting solution dissolved in a physiological saline solution was added to the well of the incubated plate and incubated for 4 hours. The produced formazan crystal was dissolved in dimethylsulfoxide and absorbance of each well was measured at 540 nm to calculate a number of living cells. The absorbance of the well with the medium and without cell was set to 0%, that of the well without the sample was set to 100%, and the concentration corresponding to 50% was called an IC50 (μg/ml) value.
(§3) In order to measure anticancer activity of 5′-deoxy-N-alkyloxycarbonyl-5-fluorocytosine-5′-carboxylic acid (compound of Formula 2a) of the present invention using 5-FU as a control, the cell toxicity to human cancer cells was measured. The human cancer cells used were A549 (lung cancer), HCT15 (colon cancer), SK-OV-3 (ovarian cancer), and SK-MEL-2 (melanoma cancer).
(§4) The cancer cells were cultured in an incubator with a constant humidity at 37° C. and 5% CO2, and an RPMI medium with 10% fetal bovine serum was used for a medium. In order to measure cell toxicity, the cancer cells in a logarithmic phase were inoculated into 2 to 5×10^4 cells per well of a 96-well plate, incubated for 24 hours, and a sample solution of a stepwise dilution of 5-FU and 5′-deoxy-N^4-pentyloxycarbonyl-5-fluorocytocine-5′-carboxylic acid were added thereto followed by incubating for 72 hours. 20 μl of 5 mg/ml of MTT reacting solution dissolved in a physiological saline solution was added to each well of the incubated plate, incubated for 4 hours, the produced formazan crystal was dissolved in dimethylsulfoxide, and the absorbance of each well was measured at a wavelength of 540 nm to calculate the number of living cells.

[2] = test system: SK-MEL-2 (melanoma cancer); assay: MTT cell toxicity to human cancer cells, SK-MEL-2; type: cell-based; conditions: for IC50 Cancer cell line SK-MEL2: 72 hours, Table 3
Description: as §1, §2, §3, §4

[3] = test system: HCT15 (colon cancer); assay: MTT cell toxicity to human cancer cells, HCT15; type: cell-based; conditions: for IC50: Homo sapiens, HCT-15, 72 hours; for IC50 Cancer cell line HCT15: 72 hours, Table 3
Description: as §1, §2, §3, §4

[4] = test system: A549 (lung cancer); assay: MTT cell toxicity to human cancer cells, A549; type: cell-based; conditions: for IC50 Cancer cell line A549: 72 hours, Table 3
Description: as §1, §2, §3, §4

[5] = test system: mouse tumor cell line L1210; assay: Anticancer activity on L1210 in BDF1 mice, increased life span (Example 34, Table 4); type: in vivo; conditions: for Average life maintenance day: control 8.8
Description: Capecitabine (5′-deoxy-N^4-(pentyloxycarbonyl)-5-fluorocytosine (in Formula 1, R^a=pentyl, R^b=hydrogen) which has good anticancer activity among. 5′-deoxy-N-alkyloxycarbonyl-5-fluorocytosine derivatives disclosed in European Patent No. 602454 was used for a control, 5′-deoxy-N^4-propazyloxycarbonyl-5-fluorocytosine-5′-carboxylic acid (Formula 2a) obtained from Example 3 was used for a sample, and anticancer activity to the mouse tumor cell line L1210 was measured.
The mice used were 5-week-old BDF1 male mice (19 to 20 g) that were purchased from Charles River Japan, and adapted for 1 week. The breeding condition of the mouse was set to a temperature of 24±2° C. and a humidity of […] Purified water for drinking was supplied to the mice twice a week, and straws and cages were changed once a week. The experiment was performed using two mice per group. As the tumor cell line, an L1210 mouse blood tumor cell line was used, the cell line was sub-cultured in a Falcon culture flask twice or three times, washed with a phosphorous buffer solution (pH 7.2), quantified under a microscope to produce a cell suspension of 1×10^7/ml, and 100 (1×10^6) […] of the cell suspension was abdominally administered to the mouse using 1 ml of a disposable sterilized injector. The drug was orally administered 24 hours after the cellular transplantation. The concentration of the administered capecitabine was 1.2, 5.7, 28.8, 144, and 720 mg/kg/100 μl for respective mice, and that of the compound of 2a of the present invention was 1.2, 5.8, 28.8 mg/kg/100 μl for respective mice. The capecitabine was dissolved in dimethylsulfoxide and suspended in 0.5% carboxymethyl cellulose, and the compound of 2a was dissolved in distilled water. The samples were administered to the mice five times a week for 3 weeks, for a total of 15 times, starting 24 hours after the tumor cell administration. The anticancer activity was determined as increased life span to control.

[6] = test system: mouse tumor cell line L1210; assay: Anticancer activity on L1210 in BDF1 mice, increased life span (Example 35, Table 5); type: in vivo; conditions: 15 times; for Average life day: control 17.8
Description: The mice used were 5-week-old BDF1 male mice (19 to 20 g) that were purchased from Charles River Japan, and adapted for 1 week. The breeding condition of the mice was set to a temperature of 24±2° C. and a humidity of […] Purified water for drinking water was supplied to the mice twice a week, and straws and cages were changed once a week. The experiment was performed using two mice per group. […] The drug was orally administered 24 hours after the cellular transplantation. […] The capecitabine was dissolved in dimethylsulfoxide and suspended in 0.5% carboxymethyl cellulose, and the compound of 2a was dissolved in distilled water. […] The anticancer activity was determined as increased life span.

[7] = test system: mouse tumor cell line L1210; assay: Anticancer activity on L1210 in BDF1 mice, increased life span (Example 6, Table 2); type: in vivo; conditions: for Increased life span (%) / Average survival date: 15 times; for Average survival date: control 17.8
Description: The mice used were 5-week-old BDF1 male mice (19 to 20 g) that were purchased from Charles River Japan, and adapted for 1 week. The breeding condition of the mice was set to a temperature of 24±2° C. and a humidity of 50±1° C. Purified water for drinking was supplied to the mice twice a week, and straws and cages were changed once a week. The experiment was performed using two mice per group. As the tumor cell line, an L1210 mouse blood tumor cell line was used, and the cell line was sub-cultured in a Falcon culture flask twice or three times, washed with a phosphorous buffer solution (pH 7.2), and quantified under a microscope to produce a cell suspension of 1×10^7/ml, and 100 (1×10^6) ml of the cell suspension was abdominally administered to the mouse using 1 ml of a disposable sterilized injector. The drug was orally administered 24 hours after the cellular transplantation. […] The samples were administered to the mice five times a week for 3 weeks, for a total of 15 times, starting 24 hours after the tumor cell administration. The anticancer activity was determined as increased life span to control.

Structure (SMILES)	IC50 Cancer cell line SK-OV-3 [1] [µg/mL]	IC50 Cancer cell line SK-MEL2 [2] [µg/mL]	IC50 Cancer cell line HCT15 [3] [µg/mL]	IC50 Cancer cell line A549 [4] [µg/mL]	Life maintenance rate (%) ([6]; 1.2 mg/kg/day oral)	Average life day ([6]; 1.2 mg/kg/day oral) [days]	Life maintenance rate (%) ([6]; 5.8 mg/kg/day oral)	Average life day ([6]; 5.8 mg/kg/day oral) [days]	Life maintenance rate (%) ([6]; 28.8 mg/kg/day oral)	Average life day ([6]; 28.8 mg/kg/day oral) [days]	Increased life span (%) ([7]; 5.8 mg/kg/day oral)	Average survival date ([7]; 5.8 mg/kg/day oral) [days]	Increased life span (%) ([7]; 28.8 mg/kg/day oral)	Average survival date ([7]; 28.8 mg/kg/day oral) [days]	Increased life span (%) ([5]; 0.13 mmol/kg/day oral)	Average life maintenance day ([5]; 0.13 mmol/kg/day oral) [days]	Increased life span (%) ([5]; 0.67 mmol/kg/day oral)	Average life maintenance day ([5]; 0.67 mmol/kg/day oral) [days]	Increased life span (%) ([5]; 1.5 mmol/kg/day oral)	Average life maintenance day ([5]; 1.5 mmol/kg/day oral) [days]	other results
O=c1[nH]cc(F)c(=O)[nH]1 [Example 5-FU, 5-fluorouracil, reference compound]																					IC50 ([1]; Table 1, read-out: IC50 Concentration (μg/ml) SK-OV-3): 0.03 µg/mL (≈ 0.231 µM); IC50 ([1]; Table 3, read-out: IC50 Cancer cell line SK-OV-3): 0.03 µg/mL (≈ 0.231 µM); IC50 ([2]; Homo sapiens, SK-MEL-2, 72 hours, Table 3, read-out: IC50 Cancer cell line SK-MEL2): 0.63 µg/mL (≈ 4.84 µM); IC50 ([3]; Table 1, read-out: IC50 Concentration (μg/ml) HCT15): 0.11 µg/mL (≈ 0.846 µM); IC50 ([3]; Table 3, read-out: IC50 Cancer cell line HCT15): 0.11 µg/mL (≈ 0.846 µM); IC50 ([4]; Homo sapiens, A549, 72 hours, Table 3, read-out: IC50 Cancer cell line A549): 0.26 µg/mL (≈ 2 µM); Increased life span (%) ([5]; 0.15 mmol/kg/day): 62.5%; Average life maintenance day ([5]; 0.15 mmol/kg/day): 14.3 days; Increased life span (%) ([5]; 0.23 mmol/kg/day): 87.5%; Average life maintenance day ([5]; 0.23 mmol/kg/day): 16.5 days
C#CCOC(=O)Nc1nc(=O)n([C@@H]2O[C@H](C(=O)O)[C@@H](O)[C@H]2O)cc1F [Example 3, 5′-deoxy-N^4-(propargyloxycarbonyl)-5-fluorocytosine-5′-carboxylic acid]	0.005 (≈ 0.014 µM)	0.007 (≈ 0.0196 µM)	0.040 (≈ 0.112 µM)	0.005 (≈ 0.014 µM)	8	20.1	11	20.6	23	21.9	11	20.6	23	21.9							Increased life span (%) ([7]; 1.2 mg/kg/day oral): 8%; Average survival date ([7]; 1.2 mg/kg/day oral): 20.1 days; anticancer activity in vivo ([7]; summary of Table 2, animal experiment): good anticancer activity in vivo
CCCCCOC(=O)Nc1nc(=O)n([C@@H]2O[C@H](C)[C@@H](O)[C@H]2O)cc1F [Capecitabine, 5′-deoxy-N^4-(pentyloxycarbonyl)-5-fluorocytosine]					6	18.9	8	19.2	14	20.2	8	19.2	14	20.2	6.8	9.4	9.1	9.6	42.0	12.5	Life maintenance rate (%) ([6]; 144 mg/kg/day oral): 15%; Average life day ([6]; 144 mg/kg/day oral): 20.1 days; Life maintenance rate (%) ([6]; 720 mg/kg/day oral): 30%; Average life day ([6]; 720 mg/kg/day oral): 22.8 days; Increased life span (%) ([7]; 144 mg/kg/day oral): 15%; Average survival date ([7]; 144 mg/kg/day oral): 20.1 days; Increased life span (%) ([7]; 720 mg/kg/day oral): 30%; Average survival date ([7]; 720 mg/kg/day oral): 22.8 days
CCOC(=O)Nc1nc(=O)n([C@@H]2O[C@H](C(=O)O)[C@@H](O)[C@H]2O)cc1F [Example 25, 5′-deoxy-N^4-(ethyloxycarbonyl)-5-fluorocytosine-5′-carboxylic acid]	0.16 (≈ 0.461 µM)	0.16 (≈ 0.461 µM)	0.47 (≈ 1.35 µM)	0.49 (≈ 1.41 µM)																	
CCCCCOC(=O)Nc1nc(=O)n([C@@H]2O[C@H](C(=O)O)[C@@H](O)[C@H]2O)cc1F [Example 28, 5′-deoxy-N^4-(pentyloxycarbonyl)-5-fluorocytosine-5′-carboxylic acid]	0.03 (≈ 0.0771 µM)	0.03 (≈ 0.0771 µM)	0.12 (≈ 0.308 µM)	0.17 (≈ 0.437 µM)											3.4	9.1	28.4	11.3	91.9	16.8	
C=CCOC(=O)Nc1nc(=O)n([C@@H]2O[C@H](C(=O)O)[C@@H](O)[C@H]2O)cc1F [Example 30, 5′-deoxy-N^4-(allyloxycarbonyl)-5-fluorocytosine-5′-carboxylic acid]	0.008 (≈ 0.0223 µM)	0.008 (≈ 0.0223 µM)	0.032 (≈ 0.0891 µM)	0.04 (≈ 0.111 µM)	25	22.1	39	24.8	44	25.7											
